Laboratory results: patent US20200291018A1, “TAM KINASE INHIBITORS” (SYROS PHARMACEUTICALS, INC., priority 2017, published 2020)

Tests used:
Type in all cases: biochemical
AXL = target: T1, AXL (Homo sapiens, UniProt P30530); test: TR-FRET kinase activity assay, AXL; conditions: ATP at Km, 60 minutes
T1 sequence (P30530 26-894): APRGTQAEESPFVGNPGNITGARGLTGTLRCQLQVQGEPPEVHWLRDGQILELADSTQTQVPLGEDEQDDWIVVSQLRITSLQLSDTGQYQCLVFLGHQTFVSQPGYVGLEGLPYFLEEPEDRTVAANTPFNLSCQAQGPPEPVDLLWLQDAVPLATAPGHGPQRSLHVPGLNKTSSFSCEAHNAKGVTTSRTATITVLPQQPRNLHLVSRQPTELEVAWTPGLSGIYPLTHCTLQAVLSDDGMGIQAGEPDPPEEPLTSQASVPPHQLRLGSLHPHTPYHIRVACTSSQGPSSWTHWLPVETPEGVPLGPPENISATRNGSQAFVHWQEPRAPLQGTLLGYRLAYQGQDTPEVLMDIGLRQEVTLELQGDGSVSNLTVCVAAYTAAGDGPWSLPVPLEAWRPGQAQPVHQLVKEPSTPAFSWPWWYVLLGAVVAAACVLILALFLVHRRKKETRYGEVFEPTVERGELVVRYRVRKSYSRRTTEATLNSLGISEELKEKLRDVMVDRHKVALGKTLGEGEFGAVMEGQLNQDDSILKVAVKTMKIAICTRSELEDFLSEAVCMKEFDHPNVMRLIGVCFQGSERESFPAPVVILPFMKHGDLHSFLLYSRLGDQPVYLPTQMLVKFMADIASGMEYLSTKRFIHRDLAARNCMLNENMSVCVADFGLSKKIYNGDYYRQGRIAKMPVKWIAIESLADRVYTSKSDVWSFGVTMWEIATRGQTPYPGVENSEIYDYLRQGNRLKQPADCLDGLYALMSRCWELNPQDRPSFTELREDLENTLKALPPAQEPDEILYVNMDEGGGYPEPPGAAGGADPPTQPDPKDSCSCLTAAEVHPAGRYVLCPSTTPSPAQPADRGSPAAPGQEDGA
Experimental: (§1) IC50 values for compound inhibition of AXL, FLT3, MERTK and TYRO3 activity were determined using a TR-FRET activity assay. A peptide substrate with a fluorescent label is phosphorylated on a tyrosine by each enzyme, where the now phosphorylated product is bound by a Europium-labeled antibody specific to that phosphorylation site. The proximity between the antibody and the substrate gives a signal known as TR-FRET. As the enzyme is inhibited by compound, less phosphorylated peptide product is made, causing a decrease in overall signal.
(§2) Activity assays were performed in a 384-well, small volume, black microplates in an active enzyme volume of 10 uL and final developed volume of 20 uL. Final assay conditions are 50 mM HEPES pH 7.5, 10 mM MgCl2, 1 mM EGTA, 0.01% Brij 35 and 1 mM DTT, all at RT. Enzyme, substrate-labeled peptide and compound are mixed, and then the reaction is initiated with the addition of ATP at Km concentration for each enzyme. The reaction is allowed to run 60 minutes and then quenched with a 12.5 mM EDTA (ethylenediamine tetraacetic acid) solution. The plate is then developed with the addition of Europium-labeled antibody for a final volume of 20 uL and is then incubated for 30 minutes in darkness. Plates are read in a PHERASTAR® plate reader. Data are analyzed in GraphPad PRISM.

FLT3 = target: T2, FLT3 (Homo sapiens, UniProt P36888); test: TR-FRET kinase activity assay, FLT3; conditions: ATP at Km, 60 minutes
T2 sequence (P36888 27-993): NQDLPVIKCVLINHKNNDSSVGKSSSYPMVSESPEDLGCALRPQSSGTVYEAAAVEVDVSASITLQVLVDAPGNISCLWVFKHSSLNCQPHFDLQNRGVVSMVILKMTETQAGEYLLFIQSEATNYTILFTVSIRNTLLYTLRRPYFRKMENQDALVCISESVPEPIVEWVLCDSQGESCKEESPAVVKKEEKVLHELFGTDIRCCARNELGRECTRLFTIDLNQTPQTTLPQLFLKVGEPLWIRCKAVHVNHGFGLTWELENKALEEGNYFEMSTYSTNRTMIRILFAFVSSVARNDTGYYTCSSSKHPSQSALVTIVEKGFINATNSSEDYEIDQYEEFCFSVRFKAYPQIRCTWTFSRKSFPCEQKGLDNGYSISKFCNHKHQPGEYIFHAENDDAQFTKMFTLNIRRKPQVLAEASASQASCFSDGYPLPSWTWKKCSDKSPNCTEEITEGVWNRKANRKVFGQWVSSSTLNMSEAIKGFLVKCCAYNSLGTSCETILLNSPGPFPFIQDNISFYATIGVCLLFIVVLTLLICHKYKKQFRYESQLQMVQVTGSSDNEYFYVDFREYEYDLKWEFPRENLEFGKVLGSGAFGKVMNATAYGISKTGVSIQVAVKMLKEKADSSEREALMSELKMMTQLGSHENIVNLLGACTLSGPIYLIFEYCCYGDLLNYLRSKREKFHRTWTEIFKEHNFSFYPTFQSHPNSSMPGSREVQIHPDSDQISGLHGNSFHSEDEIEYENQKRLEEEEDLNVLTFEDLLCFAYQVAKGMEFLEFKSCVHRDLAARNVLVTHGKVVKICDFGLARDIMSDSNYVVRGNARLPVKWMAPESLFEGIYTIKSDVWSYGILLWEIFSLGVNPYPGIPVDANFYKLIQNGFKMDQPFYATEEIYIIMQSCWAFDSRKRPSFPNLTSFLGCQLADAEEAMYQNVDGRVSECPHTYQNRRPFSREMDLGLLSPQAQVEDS
Experimental: as §1, §2

MERTK = target: T3, MERTK (Homo sapiens, UniProt Q12866); test: TR-FRET kinase activity assay, MERTK; conditions: for IC50: TR-FRET activity assay, ATP at Km, 60 minutes, read-out: Mer IC50; for Mer/Flt3 ratio (FLT3 IC50/Mer IC50): ratio calculated as FLT3 IC50/Mer IC50
T3 sequence (Q12866 21-999): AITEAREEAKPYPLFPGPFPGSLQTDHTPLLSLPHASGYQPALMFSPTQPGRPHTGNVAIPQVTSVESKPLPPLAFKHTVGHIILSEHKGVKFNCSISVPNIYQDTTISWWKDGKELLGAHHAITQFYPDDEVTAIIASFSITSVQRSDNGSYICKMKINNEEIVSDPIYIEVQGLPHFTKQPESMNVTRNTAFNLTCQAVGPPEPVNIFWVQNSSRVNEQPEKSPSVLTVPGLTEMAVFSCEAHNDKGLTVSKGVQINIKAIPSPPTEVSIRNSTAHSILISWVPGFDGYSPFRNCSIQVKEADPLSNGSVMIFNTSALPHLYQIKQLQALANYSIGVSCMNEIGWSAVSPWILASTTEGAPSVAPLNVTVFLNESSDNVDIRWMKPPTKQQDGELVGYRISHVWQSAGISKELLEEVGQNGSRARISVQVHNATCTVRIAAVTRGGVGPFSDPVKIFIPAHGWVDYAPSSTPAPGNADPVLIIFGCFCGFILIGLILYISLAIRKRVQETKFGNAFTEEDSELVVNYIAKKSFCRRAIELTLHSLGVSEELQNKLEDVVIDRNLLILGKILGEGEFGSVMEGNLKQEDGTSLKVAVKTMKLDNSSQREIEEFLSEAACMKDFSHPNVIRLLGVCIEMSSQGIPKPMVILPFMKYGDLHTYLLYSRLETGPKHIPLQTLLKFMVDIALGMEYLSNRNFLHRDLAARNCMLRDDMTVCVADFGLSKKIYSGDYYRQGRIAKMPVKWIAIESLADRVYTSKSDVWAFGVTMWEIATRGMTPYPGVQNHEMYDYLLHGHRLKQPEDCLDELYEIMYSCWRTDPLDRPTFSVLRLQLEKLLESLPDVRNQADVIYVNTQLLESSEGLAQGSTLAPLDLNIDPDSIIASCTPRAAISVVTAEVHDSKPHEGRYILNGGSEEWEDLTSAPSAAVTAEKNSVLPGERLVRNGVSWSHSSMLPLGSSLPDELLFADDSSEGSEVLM
Experimental: as §1, §2

IC50 (AXL) [nM]	IC50 (FLT3) [nM]	IC50 (MERTK) [nM]	Mer/Flt3 ratio (FLT3 IC50/Mer IC50) (MERTK)	SMILES
1000 to 10000	1000 to 10000	1000 to 10000	NS (a ratio of ≤2.0)	COCC(COC)Nc1ncc2c(=O)n(C3CCNCC3)cc([C@H]3CC[C@H](O)CC3)c2n1 [Compound 110]
100 to 1000	≤ 100	≤ 100	+++ (a ratio of >100)	CCCCNc1ncc2c(NC3CCN(C)CC3)ncc([C@H]3CC[C@H](O)CC3)c2n1 [Compound 114]
100 to 1000	1000 to 10000	≤ 100	+++ (a ratio of >100)	CCCCC[C@H](C)Nc1ncc2c(OC3CCNCC3)ncc([C@H]3CC[C@H](O)CC3)c2n1 [Compound 121]
1000 to 10000	≤ 100	≤ 100	+ (a ratio of >2.0 and <10)	CCCCNc1ncc2c(Oc3ccc(F)cc3)ncc([C@H]3CC[C@H](O)CC3)c2n1 [Compound 115]
100 to 1000	100 to 1000	≤ 100	+ (a ratio of >2.0 and <10)	CCCCNc1ncc2c(=O)n(C3CCOCC3)cc([C@H]3CC[C@H](O)CC3)c2n1 [Compound 106, 2-(butylamino)-8-(4-hydroxycyclohexyl)-6-tetrahydropyran-4-yl-pyrido[4,3-d]pyrimidin-5-one]
100 to 1000	100 to 1000	≤ 100	+ (a ratio of >2.0 and <10)	CCCCNc1ncc2c(=O)n(Cc3ccc(F)cc3)cc([C@H]3CC[C@H](O)CC3)c2n1 [Compound 105]
100 to 1000	1000 to 10000	≤ 100	+++ (a ratio of >100)	COCC(C)Nc1ncc2c(=O)n(C3CCNCC3)cc(C3CCC(O)CC3)c2n1 (centres unmarked) [Compound 111, 8-((1r,4r)-4-hydroxycyclohexyl)-2-((1-methoxypropan-2-yl)amino)-6-(piperidin-4-yl)pyrido[4,3-d]pyrimidin-5(6H)-one]
100 to 1000	1000 to 10000	≤ 100	++ (a ratio of between 10 and 100)	CC[C@H](C)Nc1ncc2c(OCC34CCC(N)(CC3)CC4)ncc([C@H]3CC[C@H](O)CC3)c2n1 [Compound 252]
100 to 1000	≤ 100	1000 to 10000	NS (a ratio of ≤2.0)	CCCCNc1ncc2c(N(C)C)ncc([C@H]3CC[C@H](O)CC3)c2n1 [Compound 123]
100 to 1000	1000 to 10000	≤ 100	+++ (a ratio of >100)	CCCCC[C@H](C)Nc1ncc2c(OC3CCOCC3)ncc([C@H]3CC[C@H](O)CC3)c2n1 [Compound 113]
100 to 1000	1000 to 10000	100 to 1000	++ (a ratio of between 10 and 100)	COCC(C)Nc1ncc2c(=O)n(C3CCN(C)CC3)cc([C@H]3CC[C@H](O)CC3)c2n1 (some centres unmarked) [Compound 118]
